# Paper PMC8175350, “Drug repurposing screens identify chemical entities for the development of COVID-19 interventions” (Nature Communications, 2021)
# Structures can show the parent of a compound that is named as a salt. Where two headings read alike, the source gives them in different places.
# Legend:
# [1] = test system: SARS-CoV-2; assay: microbe, parasite or virus in culture; format: cell-based; settings: for EC50: read-out: HeLa-ACE2 CoV-2 EC50 GeoMean
# [2] = Uninfected HeLa-ACE2 24 h live/dead cytotoxicity counter screen; format: cell-based, human; settings: human, uninfected HeLa-ACE2 cells, unrounded geometric mean; read-out: HeLa-ACE2 uninfected cytotoxicity CC50 GeoMean
# [3] = test system: SARS-CoV-2; assay: microbe, parasite or virus in culture; format: cell-based
# [4] = test system: SARS-CoV-2; format: cell-based
# [5] = test system: HeLa-ACE2 cells; assay: cells; settings: Homo sapiens, HeLa-ACE2, read-out: HeLa-ACE2 cell count EC50 GeoMean, unrounded geometric mean
# [6] = test system: Calu-3 cells; assay: cells; settings: Homo sapiens
# [7] = Uninfected Calu-3 48 h Cell-Titer Glo cytotoxicity counter screen; settings: human, uninfected Calu-3 cells, Calu-3 uninfected cytotoxicity CC50 GeoMean, unrounded geometric mean
# [8] = test system: Calu-3 cells; assay: as above; settings: for CC50: read-out: Calu-3 uninfected cytotoxicity CC50 GeoMean
# [9] = test system: HeLa-ACE2 cells; assay: Uninfected HeLa-ACE2 24 h live/dead cytotoxicity counter screen; format: cell-based, human; settings: for CC50: read-out: HeLa-ACE2 uninfected cytotoxicity CC50 GeoMean
# [10] = test system: HeLa-ACE2 cells; settings: for EC50: read-out: HeLa-ACE2 cell count EC50 GeoMean
# [11] = test system: Calu-3 cells; settings: for Calu-3 cell count Sinf Average: curve-fit effect at infinite concentration; for EC50: read-out: Calu-3 cell count EC50 GeoMean
# [12] = test system: SARS-CoV-2; assay: microbe, parasite or virus in culture; format: cell-based; remark: listed apart in the source
# [13] = test system: SARS-CoV-2; format: cell-based; settings: combination with remdesivir
# [14] = test system: HeLa-ACE2 cells; assay: cells; format: cell-based, human; settings: read-out: HeLa-ACE2 TOA cell count EC50 GeoMean
# [15] = test system: HepG2; assay: HepG2 72 h CellTiter-Glo cytotoxicity; settings: 72 h
# [16] = test system: HEK293T; assay: HEK293T 72 h CellTiter-Glo cytotoxicity; settings: 72 h
# [17] = curve-fit effect at infinite concentration, average
# [18] = unrounded geometric mean, read-out: Calu-3 CoV-2 EC50 GeoMean
# [19] = curve plateau at infinite concentration
compound,measurement,setting,value
N=C(N)c1ccc2cc(OC(=O)c3ccc(N=C(N)N)cc3)ccc2c1 [Nafamostat mesylate],EC50,"[1]; Severe acute respiratory syndrome coronavirus 2, HeLa-ACE2, unrounded geometric mean",> 9.59 µM
same,CC50 at 24 h,[2],> 39.8 µM
same,Emax,"[3]; Severe acute respiratory syndrome coronavirus 2, Calu-3, 48 h, curve-fit effect at infinite concentration, average, read-out: Calu-3 CoV-2 Sinf Average",93%
same,EC50,"[3]; Severe acute respiratory syndrome coronavirus 2, Calu-3, unrounded geometric mean, read-out: Calu-3 CoV-2 EC50 GeoMean",0.024 µM
same,EC50,"[3]; Severe acute respiratory syndrome coronavirus 2, Calu-3, geomean, read-out: SARS-CoV-2 EC50",0.024 µM
same,effect on viral replication in ALI-HBECs,[4],inhibited viral replication
same,EC50,[5],> 9.59 µM
same,Emax,"[6]; Calu-3, 48 h, read-out: Calu-3 cell count Sinf Average",100%
same,EC50,"[6]; Calu-3, read-out: Calu-3 cell count EC50 GeoMean, unrounded geometric mean",0.04 µM
same,EC50,"[6]; Calu-3, read-out: cell count EC50, Calu-3, geomean, ^↑ = increasing dose-response curve",0.04 µM
same,CC50 at 48 h,[7],> 29.9 µM
same,Calu-3 uninfected cytotoxicity Sinf Average,[8]; [17],-100%
Antimycin A3,EC50,[1]; unrounded geometric mean,> 9.59 µM
same,HeLa-ACE2 uninfected cytotoxicity Sinf Average,[9]; [17],-100%
same,CC50,[9]; unrounded geometric mean,> 39.8 µM
same,Calu-3 CoV-2 Sinf Average,[3]; [17],-92%
same,EC50,[3]; [18],0.0355 µM
same,EC50,[10]; unrounded geometric mean,> 9.59 µM
same,Calu-3 cell count Sinf Average,[11],47%
same,EC50,[11]; unrounded geometric mean,0.0626 µM
same,Calu-3 uninfected cytotoxicity Sinf Average,[8]; [17],-79%
same,CC50,[8]; unrounded geometric mean,> 3.9 µM
COc1ccc(C[C@H]2NC[C@H](O)[C@H]2OC(C)=O)cc1 [Anisomycin],HeLa-ACE2 CoV-2 Sinf Average,[1]; [17],-102%
same,EC50,[1]; unrounded geometric mean,0.0664 µM
same,HeLa-ACE2 uninfected cytotoxicity Sinf Average,[9]; [17],-98%
same,Calu-3 CoV-2 Sinf Average,[3]; [17],-98%
same,EC50,[3]; [18],0.127 µM
same,HeLa-ACE2 cell count Sinf Average,[10]; [17],-103%
same,EC50,[10]; unrounded geometric mean,0.636 µM
same,Calu-3 cell count Sinf Average,[11],37%
same,EC50,[11]; unrounded geometric mean,> 2.46 µM
same,Calu-3 uninfected cytotoxicity Sinf Average,[8]; [17],-66%
CN(C)CC1=C[CH]([Fe][CH]2C=CC=C2)C=C1CNc1ccnc2cc(Cl)ccc12 (centres unmarked) [Ferroquine],HeLa-ACE2 CoV-2 Sinf Average,[1]; [19],-97%
same,EC50,[1]; detail block,1.31 µM
same,HeLa-ACE2 SI,"[1]; selectivity index, uninfected HeLa-ACE2 CC50 / SARS-CoV-2 EC50",10.29
same,HeLa-ACE2 uninfected cytotoxicity Sinf Average,[9]; [19],-100%
same,CC50,[9]; detail block,13.4 µM
same,Calu-3 CoV-2 Sinf Average,[3]; [19],-100%
same,EC50,[3]; read-out: Calu-3 CoV-2 EC50 GeoMean,> 9.98 µM
same,TOA:HeLa-ACE2 EC50 Ratio,[12],7.345
same,HeLa-ACE2 TOA CoV-2 Sinf Average,[12]; [19],-100%
same,EC50,[12]; read-out: HeLa-ACE2 TOA CoV-2 EC50 GeoMean,> 9.59 µM
same,HeLa-ACE2 synergy score with remdesivi,[13],-2.076 δ
same,EC50,[14],> 9.59 µM
same,HeLa-ACE2 cell count Sinf Average,[10]; [19],-53%
same,EC50,[10]; detail block,> 6.8 µM
same,EC50,[11]; detail block,> 9.98 µM
same,HepG2 72-hour cytotoxicity Sinf Average,[15],-100%
same,CC50,[15]; read-out: HepG2 72-hour cytotoxicity CC50 GeoMean,4.72 µM
same,HEK293T 72-hour cytotoxicty Sinf Average,[16],-100%
same,CC50,[16]; read-out: HEK293T 72-hour cytotoxicty CC50 GeoMean,7.24 µM
same,Calu-3 uninfected cytotoxicity Sinf Average,[8]; [19],-100%
same,CC50,[8]; detail block,17.5 µM
